According to paper PMC6934184, “Selective DNA-PKcs inhibition extends the therapeutic index of localized radiotherapy and chemotherapy” (The Journal of Clinical Investigation, 2019):

Molecular target: T1, PKN2 (PRK2) (Homo sapiens, UniProt Q16513)
T1 construct: purchased Thermo Fisher Scientific (Life Technologies) SelectScreen
Test: SelectScreen LanthaScreen
Assay type: binding
Details: read-out: % displacement
How it was run: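 SelectScreen broad panel; activity (Z'LYTE, Adapta) plus binding formats. ATP: Km app for CSF1R Z'LYTE; 10 for CAMK1 Adapta. Readout = % per kinase.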

T1 sequence (Q16513 whole entry): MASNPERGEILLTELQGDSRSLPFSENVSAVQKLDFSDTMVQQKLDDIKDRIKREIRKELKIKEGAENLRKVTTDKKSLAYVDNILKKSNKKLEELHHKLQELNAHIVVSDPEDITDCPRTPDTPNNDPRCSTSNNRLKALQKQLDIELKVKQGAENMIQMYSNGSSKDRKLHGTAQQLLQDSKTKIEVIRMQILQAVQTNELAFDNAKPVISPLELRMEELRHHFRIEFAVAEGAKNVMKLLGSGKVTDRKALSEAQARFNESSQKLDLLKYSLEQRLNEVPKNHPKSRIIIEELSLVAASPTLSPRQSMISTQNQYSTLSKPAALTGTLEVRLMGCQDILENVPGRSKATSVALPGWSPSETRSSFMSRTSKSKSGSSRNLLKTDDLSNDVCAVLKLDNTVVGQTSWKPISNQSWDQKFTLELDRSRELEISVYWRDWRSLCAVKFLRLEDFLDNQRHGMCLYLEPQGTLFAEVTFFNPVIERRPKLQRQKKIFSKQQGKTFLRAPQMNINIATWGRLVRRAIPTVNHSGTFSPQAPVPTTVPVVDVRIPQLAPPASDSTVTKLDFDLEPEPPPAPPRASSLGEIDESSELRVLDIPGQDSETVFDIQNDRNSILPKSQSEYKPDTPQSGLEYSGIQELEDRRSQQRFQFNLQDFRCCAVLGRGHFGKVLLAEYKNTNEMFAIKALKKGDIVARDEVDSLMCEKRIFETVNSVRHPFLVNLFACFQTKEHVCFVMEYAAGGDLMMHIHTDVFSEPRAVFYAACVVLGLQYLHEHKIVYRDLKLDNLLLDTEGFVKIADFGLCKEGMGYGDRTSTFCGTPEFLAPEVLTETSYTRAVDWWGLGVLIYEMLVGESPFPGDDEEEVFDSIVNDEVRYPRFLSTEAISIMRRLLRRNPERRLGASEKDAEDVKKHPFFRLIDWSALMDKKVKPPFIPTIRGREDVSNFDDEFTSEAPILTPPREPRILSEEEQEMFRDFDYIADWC

`CN(C(=O)CN1CCOCC1)c1ccc2sc3c(-c4cccc5c(=O)cc(N6CC7CCC(C6)O7)oc45)cccc3c2c1` [NU5455] was tested, and the inhibition at 1 µM was -1%.
